Target: T1, soluble guanylate cyclase (sGC) (Homo sapiens, UniProt Q02108+Q02153)
T1 construct: endogenously expressing soluble guanylate cyclase (sGC); endogenous in cells; host or cells: HEK293
T1 sequence (Q02153 1-619): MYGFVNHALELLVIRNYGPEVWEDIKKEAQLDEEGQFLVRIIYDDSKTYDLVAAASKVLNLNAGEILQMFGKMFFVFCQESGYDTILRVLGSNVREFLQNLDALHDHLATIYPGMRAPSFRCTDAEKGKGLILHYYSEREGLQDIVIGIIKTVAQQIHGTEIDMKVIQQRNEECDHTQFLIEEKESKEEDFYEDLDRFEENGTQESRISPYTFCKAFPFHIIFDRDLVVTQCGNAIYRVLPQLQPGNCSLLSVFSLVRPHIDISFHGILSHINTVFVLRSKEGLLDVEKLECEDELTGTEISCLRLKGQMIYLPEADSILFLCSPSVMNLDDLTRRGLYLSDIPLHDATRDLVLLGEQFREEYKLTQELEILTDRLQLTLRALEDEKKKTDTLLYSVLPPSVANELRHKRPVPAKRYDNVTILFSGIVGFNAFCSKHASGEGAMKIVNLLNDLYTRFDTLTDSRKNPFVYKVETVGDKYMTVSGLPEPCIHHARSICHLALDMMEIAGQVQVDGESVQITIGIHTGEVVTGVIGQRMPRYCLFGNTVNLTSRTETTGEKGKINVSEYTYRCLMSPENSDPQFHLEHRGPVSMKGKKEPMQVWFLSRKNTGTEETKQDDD
T1 sequence (Q02108 1-690): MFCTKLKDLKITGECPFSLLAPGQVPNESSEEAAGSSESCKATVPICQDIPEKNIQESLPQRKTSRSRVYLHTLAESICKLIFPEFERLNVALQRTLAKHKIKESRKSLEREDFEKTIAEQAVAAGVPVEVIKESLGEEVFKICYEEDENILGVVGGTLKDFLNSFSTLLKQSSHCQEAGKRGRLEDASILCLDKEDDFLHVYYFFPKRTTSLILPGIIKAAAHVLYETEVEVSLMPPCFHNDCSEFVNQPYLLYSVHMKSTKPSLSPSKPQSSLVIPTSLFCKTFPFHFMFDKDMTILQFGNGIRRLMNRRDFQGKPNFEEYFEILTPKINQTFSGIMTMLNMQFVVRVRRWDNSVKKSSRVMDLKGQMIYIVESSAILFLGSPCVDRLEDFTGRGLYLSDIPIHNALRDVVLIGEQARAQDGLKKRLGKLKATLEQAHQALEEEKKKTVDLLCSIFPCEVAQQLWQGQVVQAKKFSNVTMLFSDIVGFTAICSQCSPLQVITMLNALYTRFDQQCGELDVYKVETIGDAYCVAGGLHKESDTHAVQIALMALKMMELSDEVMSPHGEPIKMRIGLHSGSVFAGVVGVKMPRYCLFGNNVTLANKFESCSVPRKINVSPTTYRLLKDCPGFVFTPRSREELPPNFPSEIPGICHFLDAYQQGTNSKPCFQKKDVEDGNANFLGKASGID
Experiment: sGC-HEK-cGMP assay, LC/MS detection, updated conditions with DETA-NONOate (Example 2B)
Format: cell-based
Conditions: read-out: sGC_HEK_LCMS EC50/IC50 Abs (Norm) (nM) Binned
Protocol: Human embryonic kidney cells (HEK293), endogenously expressing soluble guanylate cyclase (sGC), were used to evaluate the activity of test compounds. Compounds stimulating the sGC enzyme should cause an increase in the intracellular concentration of cGMP. HEK 293 cells were seeded in Dulbecco's Modification of Eagle's Medium supplemented with fetal bovine serum (10% final) and penicillin (100 U/mL)/streptomycin (100 μg/mL) in a 50 μL volume at a density of 1.5×10^4 cells/well in a poly-D-lysine coated 384 well flat bottom plate. Cells were incubated overnight at 37° C. in a humidified chamber with 5% CO2. Medium was aspirated and cells were washed with 1× Hank's Buffered Saline Salt Solution (50 μL). Cells were then incubated for 15 minutes at 37° C. with 50 μL of a 0.5 mM 3-isobutyl-1-methylxanthine (IBMX) solution. Test article and Diethylenetriamine NONOate (DETA-NONOate) solutions (x μM concentration for test article solution and 10 μM concentration for DETA-NONOate solution; wherein x is one of the following concentrations);
were then added to the assay mixture and the resulting mixture incubated at 37° C. for 20 minutes. […]
cGMP concentrations were determined from each sample using the LCMS conditions below (Table 2B) and calculated standard curve. […]

SMILES	EC50
CN(C)CCOc1nc(-c2cc(-c3ccon3)n(Cc3ccccc3F)n2)ncc1F [Compound I-2]	> 1000 nM
OCCOc1nc(-c2cc(-c3ccon3)n(Cc3ccccc3F)n2)ncc1F [Compound I-1]	100 to 1000 nM

Reference: patent US20170298055A1, “sGC STIMULATORS” (IRONWOOD PHARMACEUTICALS, INC., priority 2014, published 2017)
